Measured values from patent publication US11485742B2, “2-azaspiro[3.4]octane derivatives as M4 agonists” (NOVARTIS AG, priority 2019, dated 2022).

Experiments:
[1] = biological target: T1, human cloned CHRM4 receptor (Homo sapiens, UniProt P08173); assay: CHRM4 Ca++ Flux Assay (M4_CHO cells, agonist mode); assay type: cell-based; details: for Emax: Percent Activity (PA), read-out: M4 FDSS PA %; for EC50: geometric mean if tested more than once, read-out: M4 FDSS EC50
T1 construct: expressed in transfected cells; host or cells: CHO-K1 (M4_CHO)
T1 sequence (P08173 1-479): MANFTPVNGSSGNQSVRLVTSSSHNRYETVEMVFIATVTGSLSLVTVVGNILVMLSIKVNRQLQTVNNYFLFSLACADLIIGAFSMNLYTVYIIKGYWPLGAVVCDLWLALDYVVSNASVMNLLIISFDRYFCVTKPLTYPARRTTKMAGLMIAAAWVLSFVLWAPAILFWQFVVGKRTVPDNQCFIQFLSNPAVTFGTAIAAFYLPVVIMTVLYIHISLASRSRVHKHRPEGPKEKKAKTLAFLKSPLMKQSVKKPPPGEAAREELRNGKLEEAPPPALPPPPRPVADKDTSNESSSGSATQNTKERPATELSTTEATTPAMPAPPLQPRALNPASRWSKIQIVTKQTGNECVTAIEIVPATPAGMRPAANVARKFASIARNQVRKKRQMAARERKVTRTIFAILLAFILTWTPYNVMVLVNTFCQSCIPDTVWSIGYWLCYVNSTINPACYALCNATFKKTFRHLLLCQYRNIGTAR
Procedure, shortened: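 Agonist-mode calcium flux in an M4-expressing CHO-K1 line: compounds were dosed at 11 points in triplicate and fluorescence was tracked for 3 min. Cells were preloaded with Ca++ dye and kept in −Ca/−Mg HBSS with 20 μM ATP for 60 min. Efficacy is scaled to carbachol EC100; EC50s come from four-parameter regression, geometric mean across runs.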

[2] = biological target: T2, human cloned CHRM2 receptor (Homo sapiens, UniProt P08172); assay: CHRM2 Ca++ Flux Assay (M2_CHO cells, agonist mode); assay type: cell-based; details: M2 CHO cells; for EC50: agonist mode, geometric mean if tested more than once, read-out: M2 FDSS EC50; for Emax: Percent Activity (PA) measured to EC100 of Carbachol, read-out: M2 FDSS PA %
T2 construct: expressed in transfected cells; host or cells: CHO-K1 (M2_CHO)
T2 sequence (P08172 1-466): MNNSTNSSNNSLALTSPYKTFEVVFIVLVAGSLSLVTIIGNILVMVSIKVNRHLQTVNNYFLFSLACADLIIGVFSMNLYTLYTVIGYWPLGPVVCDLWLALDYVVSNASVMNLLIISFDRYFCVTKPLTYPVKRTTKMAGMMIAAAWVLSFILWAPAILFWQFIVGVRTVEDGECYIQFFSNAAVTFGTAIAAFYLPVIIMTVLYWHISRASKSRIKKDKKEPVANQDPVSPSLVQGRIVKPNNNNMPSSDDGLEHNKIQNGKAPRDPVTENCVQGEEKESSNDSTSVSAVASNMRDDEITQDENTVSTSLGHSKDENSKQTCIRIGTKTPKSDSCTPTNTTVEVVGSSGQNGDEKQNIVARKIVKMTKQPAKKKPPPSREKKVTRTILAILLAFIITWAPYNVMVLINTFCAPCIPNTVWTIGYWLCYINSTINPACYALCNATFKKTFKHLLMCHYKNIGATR
Procedure, shortened: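 Agonist activity was expressed as percent of the carbachol EC100 response, fitted by four-parameter regression on triplicate wells, with geometric means across repeat runs. Calcium traces over 3 minutes came from dye-loaded M2_CHO cells (12K/well) pre-incubated 60 min in Ca/Mg-free HBSS with 20 mM HEPES, 2.5 mM probenecid and 20 μM ATP.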

`Cc1cc(COc2ccc(F)cc2C2CCN([C@@H]3COC4(C3)CN(c3nnco3)C4)CC2)on1` [Example 2G, (S)-7-(4-(5-fluoro-2-((3-methylisoxazol-5-yl)methoxy)phenyl)piperidin-1-yl)-2-(1,3,4-oxadiazol-2-yl)-5-oxa-2-azaspiro[3.4]octane] gave an Emax [1] of 86%, an EC50 [1] of 0.003 µM and an EC50 [2] of 0.061 µM. It also gave an Emax [2] of 55%.

`COc1ccccc1C1CCN([C@@H]2COC3(C2)CN(c2nnco2)C3)CC1` [Example 1Q, (S)-7-(4-(2-methoxyphenyl)piperidin-1-yl)-2-(1,3,4-oxadiazol-2-yl)-5-oxa-2-azaspiro[3.4]octane] gave an Emax [1] of 79%, an EC50 [1] of 0.052 µM and an EC50 [2] of 3.81 µM. The Emax [2] was 16%.

In the case of `CC1(COc2ccc(F)cc2C2CCN([C@@H]3COC4(C3)CN(c3nncs3)C4)CC2)COC1` [Example 2B, (S)-7-(4-(5-fluoro-2-((3-methyloxetan-3-yl)methoxy)phenyl)piperidin-1-yl)-2-(1,3,4-thiadiazol-2-yl)-5-oxa-2-azaspiro[3.4]octane], the Emax [1] is reported as 71%, the EC50 [1] is reported as 0.025 µM and the EC50 [2] is reported as 0.416 µM. It also gave an Emax [2] of 35%.

In the case of `Fc1ccc(OCC2COC2)c(C2CCN([C@@H]3COC4(C3)CN(c3nnco3)C4)CC2)c1` [Example 2H, (S)-7-(4-(5-fluoro-2-(oxetan-3-ylmethoxy)phenyl)piperidin-1-yl)-2-(1,3,4-oxadiazol-2-yl)-5-oxa-2-azaspiro[3.4]octane], the Emax [1] is reported as 88%, the EC50 [1] is reported as 0.006 µM and the EC50 [2] is reported as 0.309 µM. It also gave an Emax [2] of 60%.

Work on `Fc1ccc(OC2CC3(COC3)C2)c(C2CCN([C@@H]3COC4(C3)CN(c3nnco3)C4)CC2)c1` [Example 2L, (S)-7-(4-(2-((2-oxaspiro[3.3]heptan-6-yl)oxy)-5-fluorophenyl)piperidin-1-yl)-2-(1,3,4-oxadiazol-2-yl)-5-oxa-2-azaspiro[3.4]octane] yielded an Emax [1] of 81%, an EC50 [1] of 0.05 µM and an EC50 [2] of 1.07 µM. The Emax [2] was 14%.

Work on `CC(C)(O)COc1ccc(F)cc1C1CCN([C@@H]2COC3(C2)CN(c2nnco2)C3)CC1` [Example 1U, (S)-1-(2-(1-(2-(1,3,4-oxadiazol-2-yl)-5-oxa-2-azaspiro[3.4]octan-7-yl)piperidin-4-yl)-4-fluorophenoxy)-2-methylpropan-2-ol] yielded an Emax [1] of 73%, an EC50 [1] of 0.09 µM and an EC50 [2] of over 25 µM. It also gave an Emax [2] of 0%.

Work on `Fc1ccc(OC2COC2)c(C2CCN([C@@H]3COC4(C3)CN(c3ncon3)C4)CC2)c1` [Example 6B, (S)-7-(4-(5-fluoro-2-(oxetan-3-yloxy)phenyl)piperidin-1-yl)-2-(1,2,4-oxadiazol-3-yl)-5-oxa-2-azaspiro[3.4]octane] yielded an Emax [1] of 79%, an EC50 [1] of 0.008 µM and an EC50 [2] of 0.39 µM. For the same compound, the Emax [2] was 38%.

Compound `OC1(COc2ccc(F)cc2C2CCN([C@@H]3COC4(C3)CN(c3nnco3)C4)CC2)COC1` [Example 2U, (S)-3-((2-(1-(2-(1,3,4-oxadiazol-2-yl)-5-oxa-2-azaspiro[3.4]octan-7-yl)piperidin-4-yl)-4-fluorophenoxy)methyl)oxetan-3-ol] has an Emax [1] of 86%, an EC50 [1] of 0.012 µM and an EC50 [2] of 0.275 µM. For the same compound, the Emax [2] was 51%.

For `Cc1nnc(COc2ccc(F)cc2C2CCN([C@@H]3COC4(C3)CN(c3nnco3)C4)CC2)o1` [Example 2F, (S)-7-(4-(5-fluoro-2-((5-methyl-1,3,4-oxadiazol-2-yl)methoxy)phenyl)piperidin-1-yl)-2-(1,3,4-oxadiazol-2-yl)-5-oxa-2-azaspiro[3.4]octane], the Emax [1] was 90%, the EC50 [1] was 0.001 µM and the EC50 [2] was 0.113 µM. It also gave an Emax [2] of 67%.

`c1ccc(C2CCN([C@@H]3COC4(C3)CN(c3nnco3)C4)CC2)c(O[C@@H]2CCOC2)c1` [Example 1O, (S)-2-(1,3,4-oxadiazol-2-yl)-7-(4-(2-(((R)-tetrahydrofuran-3-yl)oxy)phenyl)piperidin-1-yl)-5-oxa-2-azaspiro[3.4]octane] gave an Emax [1] of 89%, an EC50 [1] of 0.026 µM and an EC50 [2] of 0.611 µM. The Emax [2] was 36%.

`Cc1nnc(-c2ccccc2C2CCN([C@@H]3COC4(C3)CN(c3nnco3)C4)CC2)o1` [Example 1Y, (S)-7-(4-(2-(5-methyl-1,3,4-oxadiazol-2-yl)phenyl)piperidin-1-yl)-2-(1,3,4-oxadiazol-2-yl)-5-oxa-2-azaspiro[3.4]octane] gave an Emax [1] of 86%, an EC50 [1] of 0.112 µM and an EC50 [2] of 0.874 µM. For the same compound, the Emax [2] was 35%.

Work on `CC(C)(O)CCOc1ccc(F)cc1C1CCN([C@@H]2COC3(C2)CN(c2nnco2)C3)CC1` [Example 1N, (S)-4-(2-(1-(2-(1,3,4-oxadiazol-2-yl)-5-oxa-2-azaspiro[3.4]octan-7-yl)piperidin-4-yl)-4-fluorophenoxy)-2-methylbutan-2-ol] yielded an Emax [1] of 63%, an EC50 [1] of 0.133 µM and an EC50 [2] of over 25 µM. The Emax [2] was 0%.

Work on `Fc1cc(O[C@@H]2CCOC2)c(C2CCN([C@@H]3COC4(C3)CN(c3nnco3)C4)CC2)cc1F` [Example 1R, (S)-7-(4-(4,5-difluoro-2-(((R)-tetrahydrofuran-3-yl)oxy)phenyl)piperidin-1-yl)-2-(1,3,4-oxadiazol-2-yl)-5-oxa-2-azaspiro[3.4]octane] yielded an Emax [1] of 77%, an EC50 [1] of 0.041 µM and an EC50 [2] of 0.359 µM. The Emax [2] was 32%.

In the case of `Cc1nnc(COc2ccc(F)cc2C2CCN([C@@H]3COC4(C3)CN(c3nnco3)C4)CC2)s1` [Example 2E, (S)-7-(4-(5-fluoro-2-((5-methyl-1,3,4-thiadiazol-2-yl)methoxy)phenyl)piperidin-1-yl)-2-(1,3,4-oxadiazol-2-yl)-5-oxa-2-azaspiro[3.4]octane], the Emax [1] is reported as 85%, the EC50 [1] is reported as 0.001 µM and the EC50 [2] is reported as 0.081 µM. The Emax [2] was 59%.

For `Fc1ccc(OCc2ncccn2)c(C2CCN([C@@H]3COC4(C3)CN(c3nnco3)C4)CC2)c1` [Example 2I, (S)-7-(4-(5-fluoro-2-(pyrimidin-2-ylmethoxy)phenyl)piperidin-1-yl)-2-(1,3,4-oxadiazol-2-yl)-5-oxa-2-azaspiro[3.4]octane], the Emax [1] was 77%, the EC50 [1] was 0.012 µM and the EC50 [2] was 0.109 µM. It also gave an Emax [2] of 35%.

For `Fc1ccc(OC2CC3(COC3)C2)c(C2CCN([C@H]3COC4(C3)CN(c3nnco3)C4)CC2)c1` [Example 7A, (R)-7-(4-(2-((2-oxaspiro[3.3]heptan-6-yl)oxy)-5-fluorophenyl)piperidin-1-yl)-2-(1,3,4-oxadiazol-2-yl)-5-oxa-2-azaspiro[3.4]octane], the Emax [1] was 42%, the EC50 [1] was 1.41 µM and the EC50 [2] was over 25 µM. It also gave an Emax [2] of 0%.

`COc1ccc(F)cc1C1CCN([C@@H]2COC3(C2)CN(c2nnco2)C3)CC1` [Example 1V, (S)-7-(4-(5-fluoro-2-methoxyphenyl)piperidin-1-yl)-2-(1,3,4-oxadiazol-2-yl)-5-oxa-2-azaspiro[3.4]octane] showed an Emax [1] of 83%, an EC50 [1] of 0.035 µM and an EC50 [2] of 0.598 µM. It also gave an Emax [2] of 35%.

For `CC(C)(O)CCOc1cc(F)ccc1C1CCN([C@@H]2COC3(C2)CN(c2nnco2)C3)CC1` [Example 1T, (S)-4-(2-(1-(2-(1,3,4-oxadiazol-2-yl)-5-oxa-2-azaspiro[3.4]octan-7-yl)piperidin-4-yl)-5-fluorophenoxy)-2-methylbutan-2-ol], the Emax [1] was 45%, the EC50 [1] was 0.157 µM and the EC50 [2] was over 25 µM. It also gave an Emax [2] of 0%.

In the case of `CC(C)(O)CCOc1cc(F)ccc1C1CCN([C@@H]2COC3(C2)CN(c2nncs2)C3)CC1` [Example 5V, (S)-4-(2-(1-(2-(1,3,4-thiadiazol-2-yl)-5-oxa-2-azaspiro[3.4]octan-7-yl)piperidin-4-yl)-5-fluorophenoxy)-2-methylbutan-2-ol], the Emax [1] is reported as 40%, the EC50 [1] is reported as 0.25 µM and the EC50 [2] is reported as over 25 µM. It also gave an Emax [2] of 0%.

`Fc1ccc(OC2CCOCC2)c(C2CCN([C@@H]3COC4(C3)CN(c3ncon3)C4)CC2)c1` [Example 6A, (S)-7-(4-(5-fluoro-2-((tetrahydro-2H-pyran-4-yl)oxy)phenyl)piperidin-1-yl)-2-(1,2,4-oxadiazol-3-yl)-5-oxa-2-azaspiro[3.4]octane] was tested, and the Emax [1] was 74%, the EC50 [1] was 0.012 µM and the EC50 [2] was 0.623 µM. It also gave an Emax [2] of 18%.
